According to paper PMC6476888, “Design and synthesis of anticancer 1-hydroxynaphthalene-2-carboxanilides with a p53 independent mechanism of action” (Scientific Reports, 2019):

System: caspase-8, caspase-9, AIF, cytochrome c, PARP in HCT116 cells
Assay: Western blot of proapoptotic proteins
Assay type: cell-based, human
Conditions: p53 null cells
Procedure: These are shown in Figure S5 supplementary information. […] This observation corresponds with the high selectivity of 5s towards the p53^−/− cell line. Moreover, no activation of caspase-8 or AIF was detected after incubation with the tested anilides. Similarly, the cytochrome c level was unaffected. Leakage of cytochrome c from the mitochondria is the first step of caspase-dependent apoptosis, which is often initiated by p53 activation. […] On the other hand, cleavage of PARP as well as a small but evident increase in the PARP level in response to the active compounds was observed. PolyADP-ribose polymerase is the nuclear factor that is responsible for detecting and repairing single strand breaks in DNA[79]. Its inhibition by the cleavage that is induced with caspase-3 is also a classic sign of apoptosis. However, the complex role of this protein is still vague especially in terms of any alternative activation and deactivation factors[80],[81]. Special attention is being paid to alternative ways of cell death for their potential usefulness in designing selectively targeted drugs[82]–[84].
The HCT116 cells were seeded in 3-cm Petri dishes (Nunc) at a density of 0.5·10^6 cells/well and incubated overnight. […] The protein concentration was determined using a Micro BCA™ Protein Assay Kit (Thermo-Fisher Scientific, Waltham, MA, USA c) according to the manufacturer’s instructions. […]

## O=C(Nc1ccc(F)c(Cl)c1)c1ccc2ccccc2c1O [5s]
  cleavage of caspases-8 and −9: some cleavage
